Experimental findings from the Deep4Chem optical property database are described below.

This data set can be described thus: solvent given as SMILES.

Molecules are shown by their SMILES.

Molecule `CN(C)c1ccc(-n2c(-c3ccncc3)nc3ccccc32)cc1` came in with an absorption maximum (in CC#N) of 299 nm.
Regarding `COc1cc2cc(-c3ccc(C(=O)OCOC(C)=O)cc3C(=O)OCOC(C)=O)oc2cc1N1CCOCCOCCN(c2cc3oc(-c4ccc(C(=O)OCOC(C)=O)cc4C(=O)OCOC(C)=O)cc3cc2OC)CCOCCOCC1`, the absorption maximum (in O) came out at 350 nm.
`Cc1ccc(-c2nc(-c3ccc(O)cc3)[nH]c2-c2ccc(C)cc2)cc1` gave an absorption maximum (in CO) of 295 nm.
Turning to `Oc1ccc(-c2cccs2)cc1-c1nc2ccccc2s1`, the absorption maximum is, setting by setting: (in CCO) 360 nm; (in O) 361 nm.
For `O=[N+]([O-])c1cccs1`, the absorption maximum came out at 308 nm (in CO) and 318 nm (in O).
`O=C1c2cccc3cc4ccccc4c(c23)C(=O)N1Cc1ccccn1` yielded an absorption maximum (in C1CCOC1) of 432 nm; an absorption maximum (in CCCCCC) of 427 nm; an absorption maximum (in CCO) of 436 nm; an absorption maximum (in Cc1ccccc1) of 435 nm; an absorption maximum (in ClCCl) of 437 nm.
In the case of `CCOC(=O)COc1ccc(/C=C/c2c(CC)c(C)c3n2[B-](F)(F)[N+]2=C(c4[nH]c(C)c(CC)c4C)c4ccccc4C2=C3C)cc1`, the absorption maximum (in C1CCOC1) worked out at 675 nm; the absorption maximum (in CC#N) was 664 nm; the absorption maximum (in CCCCCC) was determined as 677 nm; the absorption maximum (in CO) was found to be 666 nm; the absorption maximum (in Cc1ccccc1) came out at 682 nm; the absorption maximum (in ClCCl) was found to be 675 nm.
In the case of `C(=C\c1ccc(-c2ccc(/C=C/c3ccc(-n4c5ccccc5c5ccccc54)cc3)s2)s1)/c1ccc(-n2c3ccccc3c3ccccc32)cc1`, under “in Cc1ccccc1”, the absorption maximum came to 440.22 nm.
For the molecule `CCC1=C(C)C(=O)n2c1cc1[nH]c(C(=O)OC(C)(C)C)c(C)c1c2=O`, the absorption maximum by setting is: (in C1CCCCC1) 392 nm; (in CO) 397 nm; (in CS(C)=O) 397 nm; (in ClC(Cl)Cl) 397 nm; (in c1ccccc1) 396 nm.
Take `COc1ccc2c(c1)N(c1ccccc1-c1ccccc1)c1cc3c(cc1=N2)Oc1c(cc(C(C)(C)C)cc1C(C)(C)C)N=3`: the absorption maximum was found to be 532 nm (in CC#N), 559 nm (in CCCCCC) and 552 nm (in CO).
`N#Cc1cc(C#N)c(-c2ccc(N(c3ccccc3)c3ccccc3)cc2)cc1-c1ccc(N(c2ccccc2)c2ccccc2)cc1` registered an absorption maximum (in Cc1ccccc1) of 394 nm.
The molecule `N#Cc1c(N2CCCCC2)cc(-c2ccc3ccccc3c2)c2c1C(=O)c1ccccc1-2` showed an absorption maximum (in C1CCOC1) of 346 nm.
`COC(=O)c1cc(=O)n(Cc2ccccc2)c2cc(-c3ccc(OC)cc3)sc12`: the absorption maximum worked out at 400 nm (in CC#N) and 404 nm (in ClCCl).
Regarding `CC(C)[Si](C#Cc1c2ccccc2c(C#Cc2c3ccccc3c(C#Cc3c4ccccc4c(C#Cc4c5ccccc5c(C#Cc5c6ccccc6c(C#C[Si](C(C)C)(C(C)C)C(C)C)c6ccccc56)c5ccccc45)c4ccccc34)c3ccccc23)c2ccccc12)(C(C)C)C(C)C`, where the note is “in Cc1ccccc1”, the absorption maximum is 585 nm.
Turning to `Cc1ccc(C2CC(c3ccc(O)cc3)=NN2c2ccc(S(N)(=O)=O)cc2)cc1` (centres undefined), the absorption maximum runs as follows: (in C1CCOC1) 359 nm; (in C1COCCO1) 360 nm; (in CC#N) 358 nm; (in CC(C)O) 358 nm; (in CCO) 358 nm; (in CCOC(C)=O) 358 nm. Moreover, the absorption maximum is, setting by setting: (in CN(C)C=O) 362 nm; (in CO) 357 nm; (in CS(C)=O) 364 nm; (in O) 360 nm.
The molecule `Cc1cccc2nc(-c3ccc(-c4cc(=O)cc(-c5ccccc5)o4)cc3)c(NC3CCCCC3)n12` had an absorption maximum (in ClCCl) of 356 nm.
On to `[O-]c1c(-c2nc3ccccc3s2)cc2ccc3cccc4ccc1c2c34`, for which the absorption maximum came to 514 nm (in CC#N) and 524 nm (in CS(C)=O).
Molecule `COc1ccc(-c2csc(/C(C#N)=C/c3ccc([N+](=O)[O-])cc3)n2)cc1` showed an absorption maximum (in CC#N) of 399 nm.
With `Oc1c(-c2ccco2)cccc1-c1nc2ccccc2s1`, the absorption maximum is, setting by setting: (in ClCCl) 360 nm; (in O) 360 nm.
`CCn1c2ccccc2c2cc(C#Cc3cc(C#Cc4ccc5c(c4)c4ccccc4n5CC)ncn3)ccc21`: the absorption maximum is, setting by setting: (in C1CCOC1) 382 nm; (in CCOC(C)=O) 379 nm; (in CN(C)C=O) 386 nm; (in Cc1ccccc1) 383 nm; (in ClCCl) 386 nm.
Take `C#CCn1c2ccccc2c2cc(/C=C/c3c(Cl)c(C)c4n3[B-](F)(F)[N+]3=C(C)C(Cl)=C(C)C3=C4c3ccc(I)cc3)ccc21`: the absorption maximum (in CC#N) is given as 606 nm, the absorption maximum (in CS(C)=O) worked out at 616 nm and the absorption maximum (in ClC(Cl)Cl) came to 619 nm.
The molecule `c1ccc(-n2c3ccccc3c3cc(-c4cccc(-n5c6cccnc6c6c7sc8ccccc8c7ccc65)c4)ccc32)cc1` came in with an absorption maximum (in ClCCl) of 365 nm.
Take `CCCCCCCCCCCCCCCCCCN1C(=O)c2ccc3c4ccc5c6c(ccc(c7ccc(c2c37)C1=O)c64)C(=O)NC5=O`: the absorption maximum (in CN(C)C=O) was 523 nm.
Regarding `CC1(C)c2ccccc2N(c2ccc(-c3nc(-c4ccccc4)cc(-c4ccccc4)n3)cc2)c2ccccc21`, the absorption maximum (in Cc1ccccc1) is on record as 366.6 nm.
For the molecule `FC(F)(F)c1ccc2oc3nc4oc5ccc(-n6c7ccccc7c7ccccc76)cc5c4cc3c2c1`, the absorption maximum (in ClC(Cl)Cl) came to 342 nm.
Molecule `CS(=O)(=O)c1ccc(-c2cc3ccc(N)cc3c(=O)o2)cc1` showed an absorption maximum (in CC(C)=O) of 358 nm; an absorption maximum (in CCCCCCCCO) of 366 nm; an absorption maximum (in CCCCO) of 366 nm; an absorption maximum (in CCCO) of 366 nm; an absorption maximum (in CCOC(C)=O) of 356 nm; an absorption maximum (in CN(C)C=O) of 367 nm. Further, the absorption maximum by setting is: (in CO) 358 nm; (in ClC(Cl)Cl) 351 nm.
Molecule `CC1(C)C2=C3C=C4C5=[N+](CCC4OC3CCN2c2ccc(CC(=O)NCCCCCCO)cc21)c1ccc(S(=O)(=O)[O-])cc1C5(C)C` (centres undefined) had an absorption maximum (in O) of 558 nm.
`Cc1ccc(/C=C/c2ccccc2-[n+]2noc([O-])c2C)cc1`: the absorption maximum reads like this: (in C1CCCCC1) 314 nm; (in CC#N) 310 nm; (in CCO) 312 nm.
Where the note is “in Cc1ccccc1”, `O=S(=O)(c1ccc(N(c2ccccc2)c2ccccc2)cc1)c1ccc(S(=O)(=O)c2ccc(N(c3ccccc3)c3ccccc3)cc2)cc1` registered an absorption maximum of 354 nm.
For `CCCCC(CC)COc1cc(OCC(CC)CCCC)c2c#cc3ccc4c(c3)c3cc(c#cc5cc(c#cc6ccc7c(c6)c6cc(c#cc1c2)ccc6n7CC(CC)CCCC)c(C(CCCC)OCCC)cc5C(CCCC)OCCC)ccc3n4CC(CC)CCCC` (centres undefined), the absorption maximum (in ClCCl) is given as 340 nm.
Under “in CCO”, `CCN(CC)c1cc2sc3cc(N(CC)CC)c(F)cc3c(=O)c2cc1F` returned an absorption maximum of 393 nm.
As for `O=c1c2cc(F)c(O)cc2oc2cc(O)c(F)cc12`, the absorption maximum (in CCO) is listed as 369 nm.
On to `c1cc2ccc1-c1ccc(cc1)-c1ccc([se]1)-c1ccc(cc1)-c1ccc(cc1)-c1ccc([se]1)-c1ccc(cc1)-c1ccc(cc1)-c1ccc-2[se]1`, for which the absorption maximum (in C1CCOC1) worked out at 365 nm.
For the setting “in C1CCCCC1”, `c1ccc(-c2c3c(c(-c4ccccc4)c4c2-c2ccccc2C4)-c2ccccc2C3)cc1` came in with an absorption maximum of 329 nm.
`Cc1c2ccc3c(C)[n+](C)ccc3c2cc[n+]1C` came in with an absorption maximum (in CC#N) of 390 nm.
